Measured values reported in ChEMBL document CHEMBL3784918, “Novel 2,4-diaminopyrimidines bearing tetrahydronaphthalenyl moiety against anaplastic lymphoma kinase (ALK): Synthesis, in vitro, ex vivo, and in vivo efficacy studies” (Bioorg Med Chem Lett, 2016).
Activity calls are given as the source filed them. The calls are words filed in the database; no cut-off is given here.

Tests used:
[1] = Tmax in cannulated Sprague Dawley rat at 10 mg/kg administered through oral gavage by LC/MS/MS analysis; type: ADME, organism-based; details: in vivo
[2] = molecular target: CYP1A2 (Homo sapiens, UniProt P05177); experiment: Inhibition of CYP1A2 (unknown origin) at 10 uM; type: ADME
[3] = molecular target: CYP2C9 (Homo sapiens, UniProt P11712); experiment: Inhibition of CYP2C9 (unknown origin) at 10 uM; type: ADME
[4] = molecular target: CYP2D6 (Homo sapiens, UniProt P10635); experiment: Inhibition of CYP2D6 (unknown origin) at 10 uM; type: ADME
[5] = molecular target: CYP3A4 (Homo sapiens, UniProt P08684); experiment: Inhibition of CYP3A4 (unknown origin) at 10 uM; type: ADME
[6] = molecular target: CYP2C19 (Homo sapiens, UniProt P33261); experiment: Inhibition of CYP2C19 (unknown origin) at 10 uM; type: ADME
[7] = Cmax in cannulated Sprague Dawley rat at 10 mg/kg administered through oral gavage by LC/MS/MS analysis; type: ADME, organism-based; parameters: dose 10 mg/kg, route oral; details: in vivo
[8] = Half life in cannulated Sprague Dawley rat at 10 mg/kg administered through oral gavage by LC/MS/MS analysis; type: ADME, organism-based; details: in vivo
[9] = AUCt in cannulated Sprague Dawley rat at 10 mg/kg administered through oral gavage by LC/MS/MS analysis; type: ADME, organism-based; details: in vivo
[10] = AUCinfinity in cannulated Sprague Dawley rat at 10 mg/kg administered through oral gavage by LC/MS/MS analysis; type: ADME, organism-based; parameters: dose 10 mg/kg, time infinity, route oral; details: in vivo
[11] = system: NCI-H3122; experiment: Antitumor activity against human NCI-H3122 cells xenografted in SCID mouse assessed as tumor growth inhibition at 50 mg/kg, po administered qd for 14 days; type: functional, organism-based
[12] = system: NCI-H3122; experiment: Antitumor activity against human NCI-H3122 cells xenografted in SCID mouse assessed as tumor growth inhibition at 25 mg/kg, po administered qd for 14 days; type: functional, organism-based
[13] = molecular target: Focal adhesion kinase 1 (Homo sapiens) (UniProt Q05397); experiment: Inhibition of human FAK at 1 uM after 30 mins by fluorescence assay in presence of ATP
[14] = molecular target: Insulin receptor (Homo sapiens) (UniProt P06213); experiment: Inhibition of human IR at 1 uM after 30 mins by fluorescence assay in presence of ATP
[15] = molecular target: Activated CDC42 kinase 1 (Homo sapiens) (UniProt Q07912); experiment: Inhibition of human ACK1 at 1 uM after 30 mins by fluorescence assay in presence of ATP
[16] = molecular target: Fibroblast growth factor receptor 1 (Homo sapiens) (UniProt P11362); experiment: Inhibition of human FGFR1 at 1 uM after 30 mins by fluorescence assay in presence of ATP
[17] = molecular target: Receptor-type tyrosine-protein kinase FLT3 (Homo sapiens) (UniProt P36888); experiment: Inhibition of human FLT3 at 1 uM after 30 mins by fluorescence assay in presence of ATP
[18] = molecular target: Tyrosine-protein kinase Mer (Homo sapiens) (UniProt Q12866); experiment: Inhibition of human MER at 1 uM after 30 mins by fluorescence assay in presence of ATP
[19] = molecular target: Ribosomal protein S6 kinase alpha-1 (Homo sapiens) (UniProt Q15418); experiment: Inhibition of human RSK1 at 1 uM after 30 mins by fluorescence assay in presence of ATP
[20] = molecular target: T1, ALK tyrosine kinase receptor (Homo sapiens, UniProt Q9UM73); experiment: Inhibition of human ALK at 1 uM after 30 mins by fluorescence assay in presence of ATP
[21] = molecular target: Insulin-like growth factor 1 receptor (Homo sapiens) (UniProt P08069); experiment: Inhibition of human IGF1R at 1 uM after 30 mins by fluorescence assay in presence of ATP
[22] = molecular target: Aurora kinase A (Homo sapiens) (UniProt O14965); experiment: Inhibition of human Aurora A at 1 uM after 30 mins by fluorescence assay in presence of ATP
[23] = molecular target: Serine/threonine-protein kinase Chk2 (Homo sapiens) (UniProt O96017); experiment: Inhibition of human CHK2 at 1 uM after 30 mins by fluorescence assay in presence of ATP
[24] = molecular target: Epidermal growth factor receptor (Homo sapiens) (UniProt P00533); experiment: Inhibition of human EGFR at 1 uM after 30 mins by fluorescence assay in presence of ATP
[25] = molecular target: Protein-tyrosine kinase 2-beta (Homo sapiens) (UniProt Q14289); experiment: Inhibition of human PYK2 at 1 uM after 30 mins by fluorescence assay in presence of ATP
[26] = molecular target: Aurora kinase B (Homo sapiens) (UniProt Q96GD4); experiment: Inhibition of human Aurora B at 1 uM after 30 mins by fluorescence assay in presence of ATP
[27] = molecular target: Tyrosine-protein kinase receptor UFO (Homo sapiens) (UniProt P30530); experiment: Inhibition of human AXL at 1 uM after 30 mins by fluorescence assay in presence of ATP
[28] = molecular target: NUAK family SNF1-like kinase 1 (Homo sapiens) (UniProt O60285); experiment: Inhibition of human ARK5 at 1 uM after 30 mins by fluorescence assay in presence of ATP
[29] = molecular target: Serine/threonine-protein kinase 10 (Homo sapiens) (UniProt O94804); experiment: Inhibition of human LOK at 1 uM after 30 mins by fluorescence assay in presence of ATP
[30] = molecular target: Proto-oncogene tyrosine-protein kinase ROS (Homo sapiens) (UniProt P08922); experiment: Inhibition of human ROS at 1 uM after 30 mins by fluorescence assay in presence of ATP
[31] = molecular target: Serine/threonine-protein kinase TAO1 (Homo sapiens) (UniProt Q7L7X3); experiment: Inhibition of human TAO1 at 1 uM after 30 mins by fluorescence assay in presence of ATP
[32] = molecular target: Testis-specific serine/threonine-protein kinase 1 (Homo sapiens) (UniProt Q9BXA7); experiment: Inhibition of human TSSK1 at 1 uM after 30 mins by fluorescence assay in presence of ATP
[33] = molecular target: High affinity nerve growth factor receptor (Homo sapiens) (UniProt P04629); experiment: Inhibition of human TRKA at 1 uM after 30 mins by fluorescence assay in presence of ATP
[34] = molecular target: Tyrosine-protein kinase Yes (Homo sapiens) (UniProt P07947); experiment: Inhibition of human YES at 1 uM after 30 mins by fluorescence assay in presence of ATP
[35] = molecular target: Serine/threonine-protein kinase N2 (Homo sapiens) (UniProt Q16513); experiment: Inhibition of human PRK2 at 1 uM after 30 mins by fluorescence assay in presence of ATP
[36] = molecular target: Ephrin type-B receptor 1 (Homo sapiens) (UniProt P54762); experiment: Inhibition of human EPHB1 at 1 uM after 30 mins by fluorescence assay in presence of ATP
[37] = molecular target: Rho-associated protein kinase 2 (Homo sapiens) (UniProt O75116); experiment: Inhibition of human ROCK2 at 1 uM after 30 mins by fluorescence assay in presence of ATP
[38] = molecular target: Ephrin type-A receptor 1 (Homo sapiens) (UniProt P21709); experiment: Inhibition of human EPHA1 at 1 uM after 30 mins by fluorescence assay in presence of ATP
[39] = system: Mus musculus; experiment: Toxicity in SCID mouse xenografted with human H3122 cells assessed as change in body weight at 25 mg/kg, po administered qd for 14 days measured during compound dosing; type: organism-based; details: in vivo, 336 h
[40] = system: Mus musculus; experiment: Toxicity in SCID mouse xenografted with human H3122 cells assessed as change in body weight at 50 mg/kg, po administered qd for 14 days measured during compound dosing; type: organism-based; details: in vivo, 336 h
[41] = molecular target: T1, ALK tyrosine kinase receptor; experiment: Inhibition of wild type ALK (unknown origin) after 30 mins by HTRF assay
[42] = molecular target: ALK tyrosine kinase receptor (Homo sapiens, UniProt Q9UM73, L1196M); experiment: Inhibition of ALK L1196M mutant (unknown origin) after 30 mins by HTRF assay
[43] = molecular target: EML4-ALK (Homo sapiens) (UniProt Q9UM73+Q9HC35); experiment: Inhibition of EML4-ALK in human NCI-H3122 cells assessed as inhibition of cell proliferation after 72 hrs by SRB assay; type: cell-based
[44] = system: BaF3; experiment: Inhibition of ALK L1196M mutant in mouse BA/F3 cells assessed as inhibition of cell proliferation after 72 hrs by WST1 assay; type: cell-based
[45] = Metabolic stability of the compound in human liver microsomes assessed as compound remaining at 1 uM after 30 mins by LC/MS/MS analysis in the presence of NADPH; type: ADME; details: read-out: Stability
[46] = Metabolic stability of the compound in mouse liver microsomes assessed as compound remaining at 1 uM after 30 mins by LC/MS/MS analysis in the presence of NADPH; type: ADME; details: read-out: Stability

Chain of CYP2C19 (P33261 whole entry): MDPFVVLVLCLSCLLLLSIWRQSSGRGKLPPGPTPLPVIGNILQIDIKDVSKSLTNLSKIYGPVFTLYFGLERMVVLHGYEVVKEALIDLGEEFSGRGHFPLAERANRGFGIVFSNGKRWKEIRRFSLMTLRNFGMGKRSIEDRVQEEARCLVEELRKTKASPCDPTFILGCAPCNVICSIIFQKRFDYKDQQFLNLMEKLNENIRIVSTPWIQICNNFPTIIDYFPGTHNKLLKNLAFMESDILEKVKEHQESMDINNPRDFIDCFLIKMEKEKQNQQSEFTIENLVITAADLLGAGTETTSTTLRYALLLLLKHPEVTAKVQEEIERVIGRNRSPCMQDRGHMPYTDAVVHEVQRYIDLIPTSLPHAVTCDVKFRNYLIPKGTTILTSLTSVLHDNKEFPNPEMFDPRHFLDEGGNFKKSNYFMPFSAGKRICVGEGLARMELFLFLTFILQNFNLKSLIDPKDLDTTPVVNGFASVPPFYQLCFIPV
Chain of Aurora kinase B (Homo sapiens) (Q96GD4 whole entry): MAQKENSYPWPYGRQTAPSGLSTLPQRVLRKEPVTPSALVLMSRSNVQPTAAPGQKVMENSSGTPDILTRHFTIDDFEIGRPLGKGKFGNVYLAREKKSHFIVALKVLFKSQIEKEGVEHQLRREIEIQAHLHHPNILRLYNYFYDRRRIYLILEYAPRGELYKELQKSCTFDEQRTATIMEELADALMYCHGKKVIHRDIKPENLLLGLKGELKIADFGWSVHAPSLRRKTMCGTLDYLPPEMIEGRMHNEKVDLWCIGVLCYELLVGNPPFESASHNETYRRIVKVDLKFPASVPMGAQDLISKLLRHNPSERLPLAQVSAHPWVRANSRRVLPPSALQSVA
Chain of CYP1A2 (P05177 whole entry): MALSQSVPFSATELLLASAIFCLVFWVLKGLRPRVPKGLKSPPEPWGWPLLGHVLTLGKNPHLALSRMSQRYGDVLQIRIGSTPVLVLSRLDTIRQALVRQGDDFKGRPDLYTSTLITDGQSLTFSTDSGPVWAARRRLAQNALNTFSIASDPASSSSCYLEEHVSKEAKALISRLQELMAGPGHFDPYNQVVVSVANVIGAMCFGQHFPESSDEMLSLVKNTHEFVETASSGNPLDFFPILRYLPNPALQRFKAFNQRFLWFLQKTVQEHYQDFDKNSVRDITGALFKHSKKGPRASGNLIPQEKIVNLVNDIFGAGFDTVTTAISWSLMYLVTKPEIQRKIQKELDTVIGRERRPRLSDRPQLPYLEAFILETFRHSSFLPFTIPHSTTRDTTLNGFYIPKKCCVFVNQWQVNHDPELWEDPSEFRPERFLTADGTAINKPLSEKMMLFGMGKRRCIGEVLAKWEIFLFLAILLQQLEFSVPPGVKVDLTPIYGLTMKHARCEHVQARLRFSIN
Chain of Serine/threonine-protein kinase TAO1 (Homo sapiens) (Q7L7X3 whole entry): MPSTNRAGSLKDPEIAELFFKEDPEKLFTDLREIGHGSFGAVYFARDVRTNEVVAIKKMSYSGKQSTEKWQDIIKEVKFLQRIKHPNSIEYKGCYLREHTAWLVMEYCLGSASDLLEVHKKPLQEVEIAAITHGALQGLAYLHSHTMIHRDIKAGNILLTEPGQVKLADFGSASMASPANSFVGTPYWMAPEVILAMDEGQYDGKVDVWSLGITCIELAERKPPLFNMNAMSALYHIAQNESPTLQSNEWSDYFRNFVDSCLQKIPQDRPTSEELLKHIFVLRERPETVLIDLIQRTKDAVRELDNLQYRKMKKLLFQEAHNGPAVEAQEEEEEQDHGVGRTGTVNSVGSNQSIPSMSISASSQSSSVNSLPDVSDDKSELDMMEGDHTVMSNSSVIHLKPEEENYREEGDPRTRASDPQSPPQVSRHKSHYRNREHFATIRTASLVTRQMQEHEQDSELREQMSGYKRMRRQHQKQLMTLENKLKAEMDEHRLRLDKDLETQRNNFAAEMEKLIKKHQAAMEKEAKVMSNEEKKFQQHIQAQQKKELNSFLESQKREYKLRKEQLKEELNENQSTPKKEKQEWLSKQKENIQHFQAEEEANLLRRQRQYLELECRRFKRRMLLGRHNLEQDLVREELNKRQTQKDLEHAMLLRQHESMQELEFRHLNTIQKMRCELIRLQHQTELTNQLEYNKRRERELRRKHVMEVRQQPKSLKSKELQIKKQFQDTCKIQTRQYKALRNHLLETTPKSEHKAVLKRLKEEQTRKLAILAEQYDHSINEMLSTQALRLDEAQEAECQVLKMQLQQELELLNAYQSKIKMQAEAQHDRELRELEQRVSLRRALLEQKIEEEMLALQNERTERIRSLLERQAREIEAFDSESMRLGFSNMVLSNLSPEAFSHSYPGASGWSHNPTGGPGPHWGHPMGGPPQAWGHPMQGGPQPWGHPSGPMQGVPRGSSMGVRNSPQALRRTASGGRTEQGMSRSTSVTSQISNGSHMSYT
Chain of Tyrosine-protein kinase Mer (Homo sapiens) (Q12866 whole entry): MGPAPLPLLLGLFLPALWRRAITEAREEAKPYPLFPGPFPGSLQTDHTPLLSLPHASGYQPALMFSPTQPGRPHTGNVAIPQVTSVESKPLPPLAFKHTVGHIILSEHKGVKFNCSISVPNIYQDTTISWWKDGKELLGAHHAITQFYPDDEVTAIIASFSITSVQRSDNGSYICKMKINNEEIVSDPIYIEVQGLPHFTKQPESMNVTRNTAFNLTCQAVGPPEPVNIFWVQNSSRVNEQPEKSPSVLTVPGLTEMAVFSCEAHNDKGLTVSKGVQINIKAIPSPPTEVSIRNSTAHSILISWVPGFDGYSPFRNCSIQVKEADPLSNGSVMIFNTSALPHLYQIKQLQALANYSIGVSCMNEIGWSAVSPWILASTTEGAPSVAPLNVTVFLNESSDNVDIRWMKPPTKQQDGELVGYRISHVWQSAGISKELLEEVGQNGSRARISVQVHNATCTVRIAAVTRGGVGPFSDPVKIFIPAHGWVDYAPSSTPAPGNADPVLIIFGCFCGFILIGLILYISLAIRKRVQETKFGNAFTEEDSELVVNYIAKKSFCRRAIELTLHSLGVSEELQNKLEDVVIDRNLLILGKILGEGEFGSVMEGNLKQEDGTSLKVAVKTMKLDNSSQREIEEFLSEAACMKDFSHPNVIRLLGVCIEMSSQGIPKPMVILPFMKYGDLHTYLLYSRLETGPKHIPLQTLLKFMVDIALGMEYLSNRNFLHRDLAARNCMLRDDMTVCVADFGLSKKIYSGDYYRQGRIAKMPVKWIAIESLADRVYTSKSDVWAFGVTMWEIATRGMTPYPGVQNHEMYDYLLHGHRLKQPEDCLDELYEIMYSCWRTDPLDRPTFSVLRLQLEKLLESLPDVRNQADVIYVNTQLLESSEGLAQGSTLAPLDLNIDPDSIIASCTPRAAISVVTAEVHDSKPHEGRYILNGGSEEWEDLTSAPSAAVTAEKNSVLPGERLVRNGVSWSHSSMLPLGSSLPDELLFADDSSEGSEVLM
Chain of CYP3A4 (P08684 whole entry): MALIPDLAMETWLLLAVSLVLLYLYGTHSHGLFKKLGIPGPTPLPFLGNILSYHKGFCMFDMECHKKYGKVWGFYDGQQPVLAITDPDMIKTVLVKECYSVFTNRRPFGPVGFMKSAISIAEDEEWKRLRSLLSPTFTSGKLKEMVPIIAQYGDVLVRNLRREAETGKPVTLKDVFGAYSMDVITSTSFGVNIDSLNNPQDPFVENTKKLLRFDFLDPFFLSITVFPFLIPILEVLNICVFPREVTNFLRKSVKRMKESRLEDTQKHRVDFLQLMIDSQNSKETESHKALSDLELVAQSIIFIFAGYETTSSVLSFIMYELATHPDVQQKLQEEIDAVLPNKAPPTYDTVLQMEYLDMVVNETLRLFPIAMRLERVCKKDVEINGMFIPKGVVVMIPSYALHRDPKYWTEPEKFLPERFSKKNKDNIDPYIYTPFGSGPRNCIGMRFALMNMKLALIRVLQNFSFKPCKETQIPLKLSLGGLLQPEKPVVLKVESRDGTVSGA
Chain of CYP2D6 (P10635 whole entry): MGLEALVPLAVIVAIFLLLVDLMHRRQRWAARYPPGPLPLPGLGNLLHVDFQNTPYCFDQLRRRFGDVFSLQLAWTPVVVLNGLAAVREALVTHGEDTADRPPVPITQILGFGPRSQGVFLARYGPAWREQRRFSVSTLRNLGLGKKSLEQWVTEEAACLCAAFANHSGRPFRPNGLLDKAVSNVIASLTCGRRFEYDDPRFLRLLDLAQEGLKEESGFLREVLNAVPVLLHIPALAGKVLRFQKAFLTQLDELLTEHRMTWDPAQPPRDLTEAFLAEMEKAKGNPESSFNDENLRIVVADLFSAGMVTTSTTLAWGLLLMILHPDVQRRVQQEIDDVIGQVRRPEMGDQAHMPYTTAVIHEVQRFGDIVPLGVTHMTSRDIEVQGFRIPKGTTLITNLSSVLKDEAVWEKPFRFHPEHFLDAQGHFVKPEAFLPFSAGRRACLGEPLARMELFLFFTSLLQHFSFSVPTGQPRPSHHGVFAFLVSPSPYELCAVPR
Chain of Testis-specific serine/threonine-protein kinase 1 (Homo sapiens) (Q9BXA7 whole entry): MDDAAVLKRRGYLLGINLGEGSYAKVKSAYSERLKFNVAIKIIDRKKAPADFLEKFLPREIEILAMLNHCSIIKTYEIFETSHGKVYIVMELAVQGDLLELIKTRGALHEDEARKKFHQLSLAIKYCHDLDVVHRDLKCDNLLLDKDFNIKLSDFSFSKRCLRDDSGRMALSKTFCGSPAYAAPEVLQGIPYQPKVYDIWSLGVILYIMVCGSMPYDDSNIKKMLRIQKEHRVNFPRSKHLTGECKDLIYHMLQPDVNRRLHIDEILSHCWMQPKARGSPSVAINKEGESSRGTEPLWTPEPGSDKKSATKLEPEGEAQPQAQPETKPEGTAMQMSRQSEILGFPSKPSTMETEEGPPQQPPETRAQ

In the case of `COc1cc2c(cc1Nc1ncc(Cl)c(Nc3ccccc3S(=O)(=O)C(C)C)n1)CCC(N)C2(C)C` (stereo unspecified), the Tmax [1] is reported as 5.33 h, the inhibition at 10 µM [2] is reported as 9.5% and the inhibition at 10 µM [3] is reported as 38%. It also gave an inhibition at 10 µM [4] of 31%, an inhibition at 10 µM [5] of 97% and an inhibition at 10 µM [6] of 72%. The Cmax [7] was 582 ng/mL, the half-life [8] was 9.5 h and the AUC(0-t) [9] was 8750 ng·h/mL. For the same compound, the AUC(0-inf) [10] was 10900 ng·h/mL, the TGI [11] was “Active” and the TGI [12] was “Active”. The inhibition [13] was 100%, the inhibition [14] was 100% and the inhibition [15] was 100%. It also gave an inhibition [16] of 100%, an inhibition [17] of 100% and an inhibition [18] of 100%. The inhibition [19] was 100%, the inhibition [20] was 100% and the inhibition [21] was 100%. It also gave an inhibition [22] of 99%, an inhibition [23] of 99% and an inhibition [24] of 99%. It also gave an inhibition [25] of 98%, an inhibition [26] of 97% and an inhibition [27] of 97%. It also gave an inhibition [28] of 96%, an inhibition [29] of 96% and an inhibition [30] of 96%. It also gave an inhibition [31] of 96%, an inhibition [32] of 96% and an inhibition [33] of 95%. The inhibition [34] was 95%, the inhibition [35] was 93% and the inhibition [36] was 92%. The inhibition [37] was 92%, the inhibition [38] was 91% and the Activity [39] was “Non-toxic”. For the same compound, the Activity [40] was “Non-toxic”, the IC50 [41] was 0.7 nM and the IC50 [42] was 1.5 nM. For the same compound, the CC50 [43] was 16 nM, the CC50 [44] was 62 nM and the remaining at 0.5 h, 1 µM [45] was 56%. It also gave a remaining at 0.5 h, 1 µM [46] of 23%.
